One series concerns the target T1, MC1 receptor (Mus musculus, UniProt Q01727).
T1 construct: B16 mouse melanoma cells were used, which endogenously express the (mouse) MC1 receptor; endogenous in cells; host or cells: B16 mouse melanoma cells
Nature of the series: Affinity for the MC1-receptor, displacement of 125I-NDP-MSH in B16 mouse melanoma cells. The settings on record: endogenous mouse MC1, nb = non-binding, i.e. no affinity, read-out: Affinity for MC-receptors, Ki, MC1. The procedure:
Test 1. Affinity for the MC1-Receptor
(§1) Essentially, the affinity of the compounds for the different melanocortin receptors were determined by using either insect cells (Sf9) or COS cells, which were transfected with recombinant human MC3, MC4 or MC5 receptors. For the determination of the affinity for the MC1 receptor, B16 mouse melanoma cells were used, which endogenously express the (mouse) MC1 receptor.
(§2) Incubation was performed in 96-well plates, using 50,000 cells/well (Sf9 or COS cells) up to 200,000 cells/well (mouse melanoma cells).
(§3) After the incubation, the cells were washed twice to get rid of the excess tracer and compound, and the cells were lysed with 0.1 M NaOH. The lysate was counted in a gamma-counter, binding was calculated and the affinity determined.
For orientation: Displacement assays read how much labelled ligand stays bound in the presence of the test substance.

Series [1] concerns the target T2, recombinant human MC3 receptor (Homo sapiens, UniProt P41968).
T2 construct: expressed in transfected cells; host or cells: Sf9 insect cells or COS cells
The experiment in a line: Affinity for the MC3-receptor, displacement of 125I-NDP-MSH in transfected Sf9 or COS cells. The settings on record: nb = non-binding, i.e. no affinity, read-out: Affinity for MC-receptors, Ki, MC3. The method, then: (§4) Test 2. Affinity for the MC3-Receptors, the MC4-Receptors and the MC5-Receptors
as §1, §2, §3

The target in series [2] is T3, recombinant human MC4 receptor (Homo sapiens, UniProt P32245).
T3 construct: expressed in transfected cells; host or cells: Sf9 insect cells or COS cells
The experiment in a line: Affinity for the MC4-receptor, displacement of 125I-NDP-MSH in transfected Sf9 or COS cells. The settings on record: nb = non-binding, i.e. no affinity, read-out: Affinity for MC-receptors, Ki, MC4. The method, then: as §4, §1, §2, §3

For series [3], the target named is T4, recombinant human MC5 receptor (Homo sapiens, UniProt P33032).
T4 construct: expressed in transfected cells; host or cells: Sf9 insect cells or COS cells
The experiment in a line: Affinity for the MC5-receptor, displacement of 125I-NDP-MSH in transfected Sf9 or COS cells. The conditions noted are these: nb = non-binding, i.e. no affinity, read-out: Affinity for MC-receptors, Ki, MC5. The procedure:
as §4, §1, §2, §3

Consider 8 compounds from US20040106683A1, “Uses of benzylideneamino guanidines as ligands to the melnocortin receptors” (priority 2001, published 2004).

Counter-ions that a name gives are not always drawn.

T3 sequence (P32245 whole entry): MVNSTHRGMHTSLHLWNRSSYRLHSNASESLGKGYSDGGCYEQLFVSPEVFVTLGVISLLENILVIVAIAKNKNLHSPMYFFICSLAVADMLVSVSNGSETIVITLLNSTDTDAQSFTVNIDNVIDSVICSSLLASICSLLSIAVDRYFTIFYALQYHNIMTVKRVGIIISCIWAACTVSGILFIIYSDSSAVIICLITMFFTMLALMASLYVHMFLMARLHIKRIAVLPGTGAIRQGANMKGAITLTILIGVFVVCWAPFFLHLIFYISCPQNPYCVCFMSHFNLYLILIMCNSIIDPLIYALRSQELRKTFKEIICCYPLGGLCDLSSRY
T4 sequence (P33032 whole entry): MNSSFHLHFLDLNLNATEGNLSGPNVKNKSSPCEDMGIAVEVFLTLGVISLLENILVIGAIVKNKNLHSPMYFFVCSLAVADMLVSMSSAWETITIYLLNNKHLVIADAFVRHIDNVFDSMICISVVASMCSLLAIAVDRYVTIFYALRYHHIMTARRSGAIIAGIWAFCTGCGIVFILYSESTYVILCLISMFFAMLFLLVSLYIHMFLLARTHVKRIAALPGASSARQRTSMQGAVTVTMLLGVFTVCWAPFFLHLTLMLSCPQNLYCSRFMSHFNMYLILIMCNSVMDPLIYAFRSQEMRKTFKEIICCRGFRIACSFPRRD
T2 sequence (P41968 whole entry): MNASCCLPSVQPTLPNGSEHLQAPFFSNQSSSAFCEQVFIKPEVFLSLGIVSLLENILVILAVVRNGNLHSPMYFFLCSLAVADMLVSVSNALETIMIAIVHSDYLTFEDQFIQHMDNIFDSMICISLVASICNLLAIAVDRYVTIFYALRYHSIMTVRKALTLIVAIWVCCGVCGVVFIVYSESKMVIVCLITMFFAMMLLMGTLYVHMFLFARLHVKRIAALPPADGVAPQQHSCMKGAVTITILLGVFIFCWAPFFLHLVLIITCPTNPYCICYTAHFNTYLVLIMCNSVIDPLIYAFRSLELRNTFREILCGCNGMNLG
T1 sequence (Q01727 whole entry): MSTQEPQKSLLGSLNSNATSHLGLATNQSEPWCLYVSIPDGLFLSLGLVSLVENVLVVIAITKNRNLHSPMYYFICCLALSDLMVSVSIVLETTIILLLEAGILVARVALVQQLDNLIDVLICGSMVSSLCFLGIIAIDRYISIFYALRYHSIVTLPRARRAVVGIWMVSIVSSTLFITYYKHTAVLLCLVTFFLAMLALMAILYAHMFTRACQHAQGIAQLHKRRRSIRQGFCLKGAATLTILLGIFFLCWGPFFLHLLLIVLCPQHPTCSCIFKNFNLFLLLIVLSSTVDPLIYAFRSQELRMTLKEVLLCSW

`N=C(N)NN=Cc1ccccc1Br` (as salt: HCl) [1:14, N-(2-Bromobenzylideneamino)guanidine] showed a melting point of 197 to 201 °C.

On to `N=C(N)NN=Cc1ccccc1Br` [1:14, N-(2-Bromobenzylideneamino)guanidine], for which the Ki on MC1 receptor was 600 nM; in series [1], 74.6 µM; in series [2], 0.9 µM.

Regarding `N=C(N)NN=Cc1cc(O)ccc1Br` (as salt: HCl) [1:15, N-(2-Bromo-5-Hydroxybenzylideneamino)guanidine], the melting point is 223 to 228 °C (dec.).

In the case of `N=C(N)NN=Cc1cc(O)ccc1Br` [1:15, N-(2-Bromo-5-Hydroxybenzylideneamino)guanidine], the Ki is 1300 nM at MC1 receptor, 6.8 µM in series [2] and 68 µM in series [3].

The compound `N=C(N)NN=Cc1cccc(Br)c1` (as salt: salt) [1:21, N-(3-Bromobenzylideneamino)guanidine] showed a melting point of 160 to 161.5 °C.

On to `N=C(N)NN=Cc1cccc(Br)c1` [1:21, N-(3-Bromobenzylideneamino)guanidine], for which the inhibition constant Ki on MC1 receptor stood at 1200 nM; in series [1], 46 µM; in series [2], 5.4 µM; in series [3], 30.6 µM.

In the case of `N=C(N)NN=Cc1cc2c(cc1[N+](=O)[O-])OCO2` (as salt: salt) [1:17, N-(4,5-Methylenedioxy-2-nitrobenzylideneamino)guanidine], the melting point was 205 to 212 °C (dec.).

In the case of `N=C(N)NN=Cc1cc2c(cc1[N+](=O)[O-])OCO2` [1:17, N-(4,5-Methylenedioxy-2-nitrobenzylideneamino)guanidine], the Ki on MC1 receptor was 2100 nM; in series [1], more than 200 µM; in series [2] it was 28 µM; in series [3], more than 200 µM.

The term melting point denotes the temperature, or range, at which the solid turns liquid. What is called Ki is the equilibrium dissociation constant of an inhibitor or competing ligand from its target.
